Source: US9487508B2, “SGC stimulators” (IRONWOOD PHARMACEUTICALS, INC., priority 2012, dated 2016)

Tested on: Thoracic aortic rings
Assay: Thoracic aortic rings assay (Example 5)
Parameters: species or system Sprague-Dawley rats
Conditions: rings contracted with 100 ng/mL phenylephrine
Method: Thoracic aortic rings were dissected from anesthetized (isoflurane) male Sprague-Dawley rats weighing 275-299 g. Tissues were immediately transferred to ice-cold Krebs-Henseleit solution, which had been aerated with 95% O2 and 5% CO2 for 30 minutes. Following removal of connective tissue, aortic sections were cut into 4 rings (˜2 mm each) and suspended on 2 L-shaped hooks, with one hook fixed at the bottom of the tissue bath (Schuler Organ Bath, Harvard Apparatus) and the other connected to a force transducer (F30 Force Transducer, Harvard Apparatus). Baths contained Krebs Henseleit solution (10 mL) heated to 37° C. and aerated with 95% O2 and 5% CO2. Rings were brought to an initial tension of 0.3-0.5 g and gradually raised to a resting tension of 1.0 g over 60 minutes. Rings were rinsed with Krebs Henseleit solution (heated to 37° C. and aerated with 95% 02 and 5% CO2) at 15 minute intervals until a stable baseline was obtained. Rings were considered to be stable after a resting tension of 1.0 g was maintained (for approximately 10 minutes) without need for adjustment. Rings were then contracted with 100 ng/mL phenylephrine by adding 100 uL of a 10 µg/mL phenylephrine stock solution. Tissues achieving a stable contraction were then treated in a cumulative, dose dependent manner with test compounds prepared in dimethylsulfoxide (DMSO). In some cases, tissues were rinsed three times over a 5 minute period with Krebs-Heinseleit's solution (heated to 37° C. and aerated with 95% 02 and 5% CO2), allowed to stabilize at baseline, and then used for characterization of other test articles or DMSO effects. All data were collected using the HSE-ACAD software provided by Harvard Apparatus. Percent relaxation effects were calculated in Microsoft Excel using the recorded tension value of 100 ng/mL phenylephrine treatment as 0% inhibition and treatment with 100 μM 3-isobutyl-1-methylxanthine as 100% inhibition. EC50 values were calculated from concentration-response curves generated with GraphPad Prism Software.
As an alternative thoracic aortic rings assay, the procedure of Example 5 was used except that percent relaxation effects were calculated in Microsoft Excel using the recorded tension value of 100 ng/mL phenylephrine treatment as 0% inhibition and, after washing the tissue with buffer, the original resting tension of the tissue was used as 100% inhibition.
The biological data for some of the compounds of Formula I or Formula Ib, in comparison with the known compound, BAY 41-2272, as the reference compound, determined by the thoracic aorta ring assay of Example 5 are presented in Table 6 below.

Nc1ccnc(-n2cc(-c3ncco3)c(Cc3ccccc3F)n2)n1 [Compound I-2]
Aortic Ring Percent Relaxation at 1 μM (1 μM, resting tension = 100%): E (E = 60 or <80%) | Aortic Ring Percent Relaxation at 3 μM (3 μM, resting tension = 100%): F (F = 80 to <100%) | Aortic Ring Percent Relaxation at 10 μM (10 μM, resting tension = 100%): G (G = 100 to <120%) | EC50 (Rattus norvegicus, read-out: Aortic Ring EC50): < 2 µM
